Measured values as given in US7414068B2, “Benzopyran derivatives substituted with secondary amines including tetrazole, method for the preparation thereof and pharmaceutical compositions containing them” (Dongbu Hannong Chemical Co., Ltd., priority 2002, dated 2008).

Tests used:
[1] = tested on: A7r5 (Rat thoracic aorta smooth muscle cell line, ATCC); assay: Inhibitory effect on accumulation of reactive oxygen species induced by hydrogen peroxide (DCF fluorescence); format: cell-based; conditions: hydrogen peroxide 50 μM
Procedure: To measure reactive oxygen species, H2DCFDA (2′,7′-dichlorodihydrofluorescein diacetate, Molecular Probes, Eugene, Oreg., USA) was used. If H2DCFDA, nonpolar material is transferred through cell membrane, it is changed to H2DCF (2′,7′-dichlorodihydrofluorescein), material impermeable to membrane by intracellular esterase. H2DCF is changed to high fluorescent DCF (2′,7′-dichlorofluorescein) by low fluorescent peroxidated oxygen or hydroxyl radical. H2DCFDA solution (10 mM) dissolved in DMSO was used before the experiment. A7r5 (Rat thoracic aorta smooth muscle cell line, ATCC), as smooth muscle cell was incubated in DMEM (Dulbecco's Modified Eagle's Medium) containing 10% of FBS (fetal bovine serum). Thereafter, the cell was incubated in 48 well plate for two days, then was incubated in serum-free DMEM for 24 hours to use for experiment. Krebs-linger buffer (Krebs-Ringer (K-R), 99.01 mM NaCl, 4.69 mM KCl, 1.87 mM CaCl2, 1.2 mM MgSO4, 1.03 mM K2HPO4, 25 mM NaHCO3, 20 mM Hepes, 11.1 mM D-glucose, pH 7.4) was used for washing and process of cell monolayers. After cell monolayers media was removed, each of test compounds (0.2 ml) was pre-treated to media, then incubated at 37° C. for 15 min. Final concentration was 50 μM, hydrogen peroxide was added. The media was allowed to stand for 30 min. The said solution from media was removed. The media was washed one time. H2DCFDA 20 μM was added to the media. The media was allowed to stand for 30 min. the media was washed two times. Thereafter, oxidation of H2DCFDA was measured by Fluorescence reader (FL600, Biotech Instruments, 485 nm excitation, 530 nm emission).

[2] = tested on: cortical neuron cells; assay: Protective effect on hydrogen peroxide induced neuronal cell injury; format: cell-based; conditions: hydrogen peroxide 30 μM
[3] = tested on: isolated rat aorta; assay: Vasodilating effect on blood vessel excised from rats (methoxamine-constricted aorta); conditions: isolated rat aorta constricted with methoxamine (3 μM); read-out: Concentration for inhibition of constriction induced by methoxamine in rat arota (IC50)
Outline: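 Endothelium-denuded rat thoracic aortic rings (3 mm) in Krebs-Henseleit buffer, 37 °C, carbogen, 2 g resting tension, primed twice with 10^−5 M phenylephrine. After maximal contraction with 3×10^−6 M methoxamine, compounds added cumulatively at 1, 3, 10, 30 μM. IC50 = concentration giving 50% relaxation of maximal constriction, by linear regression.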

[4] = tested on: isolated ischemic rat heart; assay: Cardioprotective effect in ischemic heart models of rats (Langendorff); conditions: 10 μM
Outline: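 Langendorff-perfused male rat hearts (Krebs-Henseleit, 85 mmHg, 37 °C) pretreated 10 min with compound or vehicle (0.04% DMSO), then 30 min global ischemia and 30 min reperfusion. Read-outs: LVDP, HR, CF, rate-pressure product, time to contracture (first 5 mmHg EDP rise), LDH release.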

CCCOC(=O)c1cc(O)c(O)c(O)c1 [Propyl gallate, reference compound]
Inhibitory(%) against reactive oxygen species accumulation ([1]; addition 3 μM): 57%
Inhibitory(%) against reactive oxygen species accumulation ([1]; addition 10 μM): 94%
Inhibitory(%) against reactive oxygen species accumulation ([1]; addition 30 μM): 108%
Inhibition(%) of hydrogen peroxide induced neuronal cell injury ([2]; Addition 10 μM): 94%

CC1(C)Oc2ccc(C#N)cc2[C@@H](NC(=NC#N)Nc2ccc(Cl)cc2)[C@@H]1O [BMS-180448, reference compound]
IC50 [3]: 1380 nM
EDP (mmHg) ([4]; after 30 min global ischemia and reperfusion): 16.5 mmHg
LDH (u/g) ([4]; reperfusion LDH release): 17.2 u/g
LVDP X HR (%) ([4]; reperfusion, % of pre-treatment DP): 67.6%
TTC ([4]; time to contracture during global ischemia): 27.8 min
Inhibition(%) of hydrogen peroxide induced neuronal cell injury ([2]; Addition 30 μM): −5%
